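Compound exposure: 48 hours, 5 concentrations, 96-well plates. Abbreviation: GI50, concentration required for 50% inhibition of growth. At the TGI there is no net growth.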
Assays:
Assay in all cases: DTP human tumour cell line panel, 48 h
IGROV1 ovarian = test system: IGROV1 ovarian
A498 renal = test system: A498 renal
KM20L2 colon = test system: KM20L2 colon
MOLT-4 leukemia = test system: MOLT-4 leukemia
NCI-H522 lung = test system: NCI-H522 lung
DMS 273 small cell lung = test system: DMS 273 small cell lung
COLO 205 colon = test system: COLO 205 colon
EKVX NSCLC = test system: EKVX NSCLC
SK-MEL-5 melanoma = test system: SK-MEL-5 melanoma
786-0 renal = test system: 786-0 renal
OVCAR-4 ovarian = test system: OVCAR-4 ovarian
U251 CNS = test system: U251 CNS
LOX IMVI melanoma = test system: LOX IMVI melanoma
SR leukemia = test system: SR leukemia
SNB-78 CNS = test system: SNB-78 CNS
TK-10 renal = test system: TK-10 renal
ACHN renal = test system: ACHN renal
M14 melanoma = test system: M14 melanoma
KM12 colon = test system: KM12 colon
XF 498 CNS = test system: XF 498 CNS
SK-MEL-2 melanoma = test system: SK-MEL-2 melanoma
HCC-2998 colon = test system: HCC-2998 colon
DLD-1 colon = test system: DLD-1 colon
HOP-62 NSCLC = test system: HOP-62 NSCLC
MALME-3M melanoma = test system: MALME-3M melanoma
UACC-257 melanoma = test system: UACC-257 melanoma
DMS 114 small cell lung = test system: DMS 114 small cell lung
NCI-H460 lung = test system: NCI-H460 lung
SNB-75 CNS = test system: SNB-75 CNS
LXFL 529 NSCLC = test system: LXFL 529 NSCLC
RXF 393 renal = test system: RXF 393 renal
OVCAR-8 ovarian = test system: OVCAR-8 ovarian
NCI-H226 lung = test system: NCI-H226 lung
HL-60(TB) leukemia = test system: HL-60(TB) leukemia
SW-620 colon = test system: SW-620 colon
HCT-116 colon = test system: HCT-116 colon
SN12C renal = test system: SN12C renal
SNB-19 CNS = test system: SNB-19 CNS
A549 NSCLC = test system: A549 NSCLC
HCT-15 colon = test system: HCT-15 colon
SF-539 CNS = test system: SF-539 CNS
OVCAR-5 ovarian = test system: OVCAR-5 ovarian
OVCAR-3 ovarian = test system: OVCAR-3 ovarian
SF-268 CNS = test system: SF-268 CNS
UO-31 renal = test system: UO-31 renal
SK-OV-3 ovarian = test system: SK-OV-3 ovarian
HT29 colon = test system: HT29 colon
HOP-18 NSCLC = test system: HOP-18 NSCLC
UACC-62 melanoma = test system: UACC-62 melanoma
NCI-H23 lung = test system: NCI-H23 lung
HOP-92 NSCLC = test system: HOP-92 NSCLC
K-562 leukemia = test system: K-562 leukemia
SK-MEL-28 melanoma = test system: SK-MEL-28 melanoma
SF-295 CNS = test system: SF-295 CNS
M19-MEL melanoma = test system: M19-MEL melanoma

## CCC[CH2][Sn]([CH2]CCC)([O]C(=O)c1cc(F)cc(F)c1)[O]C(=O)c1cc(F)cc(F)c1
IGROV1 ovarian
  GI50: 1550 nM
  TGI: 2940 nM
A498 renal
  GI50: 1490 nM
  TGI: 2830 nM
KM20L2 colon
  GI50: 1610 nM
  TGI: 3440 nM
MOLT-4 leukemia
  GI50: 282 nM
  TGI: 1730 nM
NCI-H522 lung
  GI50: 137 nM
  TGI: 269 nM
DMS 273 small cell lung
  GI50: 1250 nM
  TGI: 2500 nM
COLO 205 colon
  GI50: 841 nM
  TGI: 2050 nM
EKVX NSCLC
  GI50: 1290 nM
  TGI: 2550 nM
SK-MEL-5 melanoma
  GI50: 1340 nM
  TGI: 2610 nM
786-0 renal
  GI50: 1250 nM
  TGI: 2490 nM
OVCAR-4 ovarian
  GI50: 1600 nM
  TGI: 3010 nM
U251 CNS
  GI50: 615 nM
  TGI: 1850 nM
LOX IMVI melanoma
  GI50: 617 nM
  TGI: 1910 nM
SR leukemia
  GI50: 459 nM
  TGI: 3290 nM
SNB-78 CNS
  GI50: 404 nM
  TGI: 1660 nM
TK-10 renal
  GI50: 1300 nM
  TGI: 2610 nM
ACHN renal
  GI50: 1330 nM
  TGI: 2610 nM
M14 melanoma
  GI50: 1360 nM
  TGI: 2670 nM
KM12 colon
  GI50: 1630 nM
  TGI: 3000 nM
XF 498 CNS
  GI50: 1870 nM
  TGI: 3280 nM
SK-MEL-2 melanoma
  GI50: 298 nM
  TGI: 1240 nM
HCC-2998 colon
  GI50: 242 nM
  TGI: 2000 nM
DLD-1 colon
  GI50: 727 nM
  TGI: 2000 nM
HOP-62 NSCLC
  GI50: 2390 nM
  TGI: 4190 nM
MALME-3M melanoma
  GI50: 508 nM
  TGI: 1750 nM
UACC-257 melanoma
  GI50: 1090 nM
  TGI: 2280 nM
DMS 114 small cell lung
  GI50: 307 nM
  TGI: 1220 nM
NCI-H460 lung
  GI50: 1540 nM
  TGI: 3020 nM
SNB-75 CNS
  GI50: 820 nM
  TGI: 2090 nM
LXFL 529 NSCLC
  GI50: 171 nM
  TGI: 607 nM
RXF 393 renal
  GI50: 349 nM
  TGI: 1330 nM
OVCAR-8 ovarian
  GI50: 1390 nM
  TGI: 2680 nM
NCI-H226 lung
  GI50: 1340 nM
  TGI: 2650 nM
HL-60(TB) leukemia
  GI50: 409 nM
  TGI: 2170 nM
SW-620 colon
  GI50: 564 nM
  TGI: 1810 nM
HCT-116 colon
  GI50: 1270 nM
  TGI: 2540 nM
SN12C renal
  GI50: 1350 nM
  TGI: 2680 nM
SNB-19 CNS
  GI50: 1500 nM
  TGI: 2830 nM
A549 NSCLC
  GI50: 7130 nM
  TGI: 20400 nM
HCT-15 colon
  GI50: 1170 nM
  TGI: 2410 nM
SF-539 CNS
  GI50: 1520 nM
  TGI: 2890 nM
OVCAR-5 ovarian
  GI50: 1600 nM
  TGI: 2960 nM
OVCAR-3 ovarian
  GI50: 1360 nM
  TGI: 2650 nM
SF-268 CNS
  GI50: 1090 nM
  TGI: 2340 nM
UO-31 renal
  GI50: 1440 nM
  TGI: 2750 nM
SK-OV-3 ovarian
  GI50: 2450 nM
  TGI: 5450 nM
HT29 colon
  GI50: 1650 nM
  TGI: 3060 nM
HOP-18 NSCLC
  GI50: 1910 nM
  TGI: 3330 nM
UACC-62 melanoma
  GI50: 1110 nM
  TGI: 2310 nM
NCI-H23 lung
  GI50: 700 nM
  TGI: 2000 nM
HOP-92 NSCLC
  GI50: 1240 nM
  TGI: 2490 nM
K-562 leukemia
  GI50: 228 nM
  TGI: 965 nM
SK-MEL-28 melanoma
  GI50: 1130 nM
  TGI: 2370 nM
SF-295 CNS
  GI50: 1340 nM
  TGI: 2620 nM
M19-MEL melanoma
  GI50: 514 nM
  TGI: 1740 nM
